# Literature values in paper PMC5983471 (PLoS ONE, 2018).
# Like-named read-outs stand apart in the source and are kept apart here.
# Columns and labels:
# [1] = design: method as in FDA prescribing information; details: ref FDA prescribing information, cited from earlier work
# [2] = design: method as in FDA prescribing information; details: healthy volunteers; ref FDA prescribing information; cited from earlier work
# [3] = tested on: castration-resistant prostate cancer; details: ref 59 (S1 Protocol), cited from earlier work
# CRPC [4] = details: cited from earlier work
# CYP3A4 [5] = tested on: CYP3A4; design: method as in FDA prescribing information; details: ref FDA prescribing information, cited from earlier work
# CYP2C9 = tested on: CYP2C9; design: method as in FDA prescribing information; details: ref FDA prescribing information, cited from earlier work
# human CYP2C8 and CYP3A4 = tested on: human CYP2C8 and CYP3A4; design: method as in FDA prescribing information; details: in vitro; ref FDA prescribing information; cited from earlier work
# CRPC [6] = details: cited from earlier work; remark: listed apart in the source
# CYP2C8 = tested on: CYP2C8; design: method as in FDA prescribing information; details: healthy volunteers; ref FDA prescribing information; cited from earlier work
# CYP2C19 = tested on: CYP2C19; design: method as in FDA prescribing information; details: ref FDA prescribing information, cited from earlier work
# CYP3A4 [7] = tested on: CYP3A4; design: method as in FDA prescribing information; details: healthy volunteers; ref FDA prescribing information; cited from earlier work
# [8] = ref FDA prescribing information; cited from earlier work
# [9] = tested on: plasma proteins, primarily albumin; design: method as in FDA prescribing information; details: ref FDA prescribing information; cited from earlier work
# [10] = design: method as in FDA prescribing information; details: single oral 14C-enzalutamide 160 mg; ref FDA prescribing information; cited from earlier work
# [11] = AFFIRM, Enzalutamide (N=800), ref Scher et al, 2012
# [12] = PREVAIL, Enzalutamide (N=871), ref Beer et al, 2014
smiles,measurement,setting,value
"CNC(=O)c1ccc(N2C(=S)N(c3ccc(C#N)c(C(F)(F)F)c3)C(=O)C2(C)C)cc1F [enzalutamide, 4-(3-[4-cyano-3-(trifluoromethyl)phenyl]-5,5dimethyl-4-oxo-2-sulfanylideneimidazolidin-1-yl)-2-fluoro-N-methylbenzamide]",plasma mean Cmax at steady state,[1]; 160 mg daily oral,16600 ng/mL
same,mean apparent volume of distribution (V/F),"[1]; single oral dose, patients, 29% CV",110 L
same,mean apparent clearance (CL/F),"[1]; single oral dose, patients",0.56 L/h
same,effect of a high-fat meal on AUC,[2],did not alter
same,PSA response rate (≥50% PSA declines),"[3]; 30 mg to 600 mg by mouth daily, 78 out of 140 subjects",56%
same,patients who discontinued treatment for an AE,[3]; daily dose ≤240 mg,1/87
same,patients who discontinued treatment for an AE,[3]; doses ≥360 mg,7/53
same,grade 3-4 AE: anemia,[3]; overall,3%
same,grade 3-4 AE: arthralgia,[3]; overall,2%
same,grade 3-4 AE: asthenia,[3]; overall,2%
same,grade 3-4 AE: fatigue,[3]; overall,11%
same,grade 3-4 AE: seizures,[3]; overall,2%
same,mild (grade 2) AE: anorexia,[3]; overall,5.7%
same,mild (grade 2) AE: back pain,[3]; overall,5.7%
same,mild (grade 2) AE: dyspnea,[3]; overall,7.9%
same,mild (grade 2) AE: fatigue,[3]; overall,27.1%
same,mild (grade 2) AE: nausea,[3]; overall,8.6%
same,maximum tolerated dose,[3],240 mg daily
same,HR for death vs placebo,"CRPC [4]; 95% CI 0.53 to 0.75, P<0.001, ref 4 (S1 Protocol)",0.63
same,"Abnormal liver function testing, Grade 3-4 (%)",CRPC [4]; [11],0.4%
same,"Arthralgias / musculoskeletal pain, Grade 3-4 (%)",CRPC [4]; [11],1%
same,"Diarrhea, Grade 3-4 (%)",CRPC [4]; [11],1%
same,"Fatigue, Grade 3-4 (%)",CRPC [4]; [11],6%
same,"Headache, Grade 3-4 (%)",CRPC [4]; [11],0.8%
same,"Hot flashes, Grade 3-4 (%)",CRPC [4]; [11],0%
same,"Seizure, Grade 3-4 (%)",CRPC [4]; [11],0.6%
same,median OS,"CRPC [4]; enzalutamide 160 mg daily (N=800), ref 4 (S1 Protocol)",18.4 months
same,rate of grade 3 or higher AEs,"CRPC [4]; enzalutamide 160 mg daily, ref 4 (S1 Protocol)",45.3%
same,effect on plasma exposure to midazolam (CYP3A4 substrate),CYP3A4 [5]; at steady state,reduced
same,CYP3A4 inducer strength,CYP3A4 [5]; in humans,strong
same,effect on plasma exposure to warfarin (CYP2C9 substrate),CYP2C9; at steady state,reduced
same,CYP2C9 inducer strength,CYP2C9; in humans,moderate
same,enzymes responsible for the metabolism,human CYP2C8 and CYP3A4,CYP2C8 and CYP3A4
same,HR for death vs placebo,"CRPC [6]; 95% CI 0.60 to 0.84, P<0.0001, ref 1 (S1 Protocol)",0.706
same,"Abnormal liver function testing, Grade 3-4 (%)",CRPC [6]; [12],0.2%
same,"Arthralgias / musculoskeletal pain, Grade 3-4 (%)",CRPC [6]; [12],1.4%
same,"Back pain, Grade 3-4 (%)",CRPC [6]; [12],2.5%
same,"Constipation, Grade 3-4 (%)",CRPC [6]; [12],0.5%
same,"Fatigue, Grade 3-4 (%)",CRPC [6]; [12],1.8%
same,"Hypertension, Grade 3-4 (%)",CRPC [6]; [12],6.8%
same,"Seizure, Grade 3-4 (%)",CRPC [6]; [12],0%
same,median OS,"CRPC [6]; enzalutamide 160 mg daily (N=871), ref 1 (S1 Protocol)",32.4 months
same,effect of gemfibrozil on composite AUC of enzalutamide plus N-desmethyl enzalutamide,CYP2C8,increased
same,effect on plasma exposure to omeprazole (CYP2C19 substrate),CYP2C19; at steady state,reduced
same,CYP2C19 inducer strength,CYP2C19; in humans,moderate
same,increase of composite AUC of enzalutamide plus N-desmethyl enzalutamide by itraconazole,CYP3A4 [7],1.3 fold
same,solubility in water,[8],practically insoluble
CC1(C)C(=O)N(c2ccc(C#N)c(C(F)(F)F)c2)C(=S)N1c1ccc(C(N)=O)c(F)c1 [N-desmethyl enzalutamide],plasma mean Cmax at steady state,[1]; 160 mg daily oral,12700 ng/mL
same,plasma mean predose trough at steady state,[1]; 160 mg daily oral,13.0 µg/mL
same,effect of a high-fat meal on AUC,[2],did not alter
same,bound to plasma proteins,[9],95%
same,% of dose recovered in feces as this species,[10],1%
